Reference: PubChem BioAssay AID1919013 (Molecular Pharmacology Branch, DTP, NCI, 2023)

Test system: LG0703-F498-PDC complex spheroid growth
Test: Anticancer human tumor LG0703-F498-PDC patient-derived lung adenocarcinoma cell line growth inhibition [AhR]
Conditions: for IC50: curve of first compound; for viability, T/C: stronger effect = lower value
Source text: Multicellular complex tumor spheroid response to aryl hydrocarbon receptor antagonists in combination with a variety of drugs and investigational agents in selected tumor cell lines
The current study was undertaken to assess response to aryl hydrocarbon receptor antagonists in combination with standard-of-care drugs and investigational agents in solid tumor complex spheroid models. Complex spheroids include a stromal component modeled by human endothelial cells (HUVEC) and fibroblasts modeled by human mesenchymal stem cells (MSCs). The concentration ranges selected for each drug and investigational agent were based upon clinically achievable concentrations if the clinical Cmax of the agent was known.
Compounds. The drugs and investigational agents: BAY 2416964 (NSC825713), GNF351 (NSC835774), CH-223191 (NSC835775), CPI-455 (NSC825282), aza-TdCyd (NSC777586), decitabine (NSC127716), belinostat (NSC758774), entinostat (NSC756642), pevonedistat (NSC761192), tazemetostat (NSC777109), talazoparib (NSC765396), olaparib (NSC753686), selinexor (NSC780203), nedisertib (M3814, NSC802822), bortezomib (NSC756655), venetoclax (NSC766270), doxorubicin (NSC123127), elimusertib (BAY189344, NSC800525), ceralasertib (AZD6738, NSC777638), TAK-243 (NSC785004), alisertib (NSC759677), etoposide (NSC141540), topotecan (NSC609699), eribulin (NSC707389), gemcitabine (NSC613327), carboplatin (NSC241240), cisplatin (NSC119875), and SN-38 (NSC673596) were obtained from the National Cancer Institute (NCI) Developmental Therapeutics Program Chemical Repository (32). The FDA-approved anticancer drug set is available from the Developmental Therapeutics Program at https://dtp.cancer.gov/organization/dscb/obtaining/available plates.htm. […] The stock solutions were prepared in dimethyl sulfoxide (DMSO, Sigma-Aldrich, St. Louis, MO, cat. D2650), except for the platinum compounds which were prepared in saline (Quality Biological, Gaithersburg, MD, cat. 114-055-101), at 800-fold the tested concentration and stored at -70 degrees C prior to their use. All drugs and investigational agents were tested over a range starting from a high concentration at or near the clinical Cmax and decreasing in half-log increments. If the clinical Cmax for an agent had not been determined, the highest concentration tested was 10 microM (Table 1).
Cell Culture. All cells were maintained in an incubator at 37 degrees C and 5% CO2 with 95% humidity. The PDC lines were cultured according to standard operating procedures established by the NCI PDMR (https://pdmr.cancer.gov). Briefly, all PDCs were thawed and cultured in Matrigel-coated flasks prepared with a working solution of 1X Ham's F-12 nutrient mix, without supplementation (Invitrogen, Waltham, MA, cat. 11765054), 100 U/mL penicillin-streptomycin (Invitrogen, cat. 15140122), and 2.5% Matrigel (Corning Inc., Corning, NY, cat. 354248) for the first three passages. All PDCs were cultured in complete DMEM/F-12 media containing advanced DMEM/F-12 (Invitrogen, cat. 12634028), 4.9% defined fetal bovine serum, heat inactivated (HyClone Laboratories Inc., Logan, UT, cat. SH30070.03HI), 389 ng/mL hydrocortisone (Sigma-Aldrich, cat. H4001), 9.7 ng/mL human EGF recombinant protein (Invitrogen, cat. PHG0313), 23.4 microg/mL adenine (Sigma-Aldrich, cat. A2786), 97.3 U/mL penicillin-streptomycin (Invitrogen, cat. 15140122), 1.9 mM L-glutamine (Invitrogen, cat. 25030081), and 9.7 microM Y-27632 dihydrochloride (Tocris Bioscience, Bristol, United Kingdom, cat. 1254). The PDCs were cultured in complete DMEM/F12 media without 10 microM Y-27632 dihydrochloride for at least two passages prior to the screen. The established cell lines NCI-H1341 and […] were cultured in DMEM/F-12, HEPES (Invitrogen, cat. 11330032), 5% defined fetal bovine serum (HyClone Laboratories Inc., cat. SH30070.03), ITS premix universal culture supplement [insulin (5 microg/mL), transferrin (5 microg/mL), and selenious acid (5 ng/mL)] […]

[1] = second compound 0.1 µM, first compound 0.0316 µM
[2] = second compound 0.1 µM, first compound 0.1 µM
[3] = second compound 0.1 µM, first compound 0.316 µM
[4] = second compound 0.1 µM, first compound 1 µM
[5] = second compound 0.1 µM, first compound 3.16 µM
[6] = second compound 0.1 µM, first compound 10 µM
[7] = second compound 0.316 µM, first compound 0.0316 µM
[8] = second compound 0.316 µM, first compound 0.1 µM
[9] = second compound 0.316 µM, first compound 0.316 µM
[10] = second compound 0.316 µM, first compound 1 µM
[11] = second compound 0.316 µM, first compound 3.16 µM
[12] = second compound 0.316 µM, first compound 10 µM
[13] = second compound 1 µM, first compound 0.0316 µM
[14] = second compound 1 µM, first compound 0.1 µM
[15] = second compound 1 µM, first compound 0.316 µM
[16] = second compound 1 µM, first compound 1 µM
[17] = second compound 1 µM, first compound 3.16 µM
[18] = second compound 1 µM, first compound 10 µM
[19] = second compound 3.16 µM, first compound 0.0316 µM
[20] = second compound 3.16 µM, first compound 0.1 µM
[21] = second compound 3.16 µM, first compound 0.316 µM
[22] = second compound 3.16 µM, first compound 1 µM
[23] = second compound 3.16 µM, first compound 3.16 µM
[24] = second compound 3.16 µM, first compound 10 µM
[25] = second compound 10 µM, first compound 0.0316 µM
[26] = second compound 10 µM, first compound 0.1 µM
[27] = second compound 10 µM, first compound 0.316 µM
[28] = second compound 10 µM, first compound 1 µM
[29] = second compound 10 µM, first compound 3.16 µM
[30] = second compound 10 µM, first compound 10 µM
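Note: luminescence taken as a proxy for viable cell amount.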
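Throughout, for viability, T/C: percent of DMSO vehicle control where 100% means growth equal to vehicle.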

IC50 (second compound 0.1 µM) | IC50 (second compound 0.316 µM) | IC50 (second compound 1 µM) | IC50 (second compound 3.16 µM) | IC50 (second compound 10 µM) | Structure (SMILES) | viability, T/C [1] | viability, T/C [2] | viability, T/C [3] | viability, T/C [4] | viability, T/C [5] | viability, T/C [6] | viability, T/C [7] | viability, T/C [8] | viability, T/C [9] | viability, T/C [13] | viability, T/C [14] | viability, T/C [19] | viability, T/C [20] | viability, T/C [25] | viability, T/C [26] | further results
8320 nM | 7100 nM | 7970 nM | 31.6 nM | < 31.6 nM | CC1(C)CCC(CN2CCN(c3ccc(C(=O)NS(=O)(=O)c4ccc(NCC5CCOCC5)c([N+](=O)[O-])c4)c(Oc4cnc5[nH]ccc5c4)c3)CC2)=C(c2ccc(Cl)cc2)C1 + Cc1cncc(-c2nc(NCCc3c[nH]c4ccccc34)c3ncn(C(C)C)c3n2)c1 | 112% | 96.1% | 106% | 97% | 87.8% | 42.5% | 120% | 88% | 101% | 116% | 113% | 48% | 49.5% | 1.31% | 1.08% | viability, T/C [10]: 92.7%; viability, T/C [11]: 88.4%; viability, T/C [12]: 34.3%; viability, T/C [15]: 95%; viability, T/C [16]: 103%; viability, T/C [17]: 97.7%; viability, T/C [18]: 37.8%; viability, T/C [21]: 54.6%; viability, T/C [22]: 43.3%; viability, T/C [23]: 52.1%; viability, T/C [24]: 24.7%; viability, T/C [27]: 1.56%; viability, T/C [28]: 1.25%; viability, T/C [29]: 1.72%; viability, T/C [30]: 4.35%
> 100 nM | > 100 nM | > 100 nM | 29.8 nM | < 0.316 nM | CC[C@@]1(O)C(=O)OCc2c1cc1n(c2=O)Cc2cc3c(CN(C)C)c(O)ccc3nc2-1 + Cc1cncc(-c2nc(NCCc3c[nH]c4ccccc34)c3ncn(C(C)C)c3n2)c1 | 78.6% | 63.7% |  |  |  |  | 63.9% | 55.4% |  | 73% | 50.2% | 48% | 38.3% | 1.21% | 2.28% | viability, T/C (second compound 0.1 µM, first compound 0.000316 µM): 96.8%; viability, T/C (second compound 0.1 µM, first compound 0.001 µM): 99.7%; viability, T/C (second compound 0.1 µM, first compound 0.00316 µM): 100%; viability, T/C (second compound 0.1 µM, first compound 0.01 µM): 89.2%; viability, T/C (second compound 0.316 µM, first compound 0.000316 µM): 93%; viability, T/C (second compound 0.316 µM, first compound 0.001 µM): 105%; viability, T/C (second compound 0.316 µM, first compound 0.00316 µM): 102%; viability, T/C (second compound 0.316 µM, first compound 0.01 µM): 87.5%; viability, T/C (second compound 1 µM, first compound 0.000316 µM): 97.5%; viability, T/C (second compound 1 µM, first compound 0.001 µM): 101%; viability, T/C (second compound 1 µM, first compound 0.00316 µM): 101%; viability, T/C (second compound 1 µM, first compound 0.01 µM): 90.6%; viability, T/C (second compound 3.16 µM, first compound 0.000316 µM): 56.9%; viability, T/C (second compound 3.16 µM, first compound 0.001 µM): 67.9%; viability, T/C (second compound 3.16 µM, first compound 0.00316 µM): 56.6%; viability, T/C (second compound 3.16 µM, first compound 0.01 µM): 57.6%; viability, T/C (second compound 10 µM, first compound 0.000316 µM): 1.34%; viability, T/C (second compound 10 µM, first compound 0.001 µM): 2.04%; viability, T/C (second compound 10 µM, first compound 0.00316 µM): 1.13%; viability, T/C (second compound 10 µM, first compound 0.01 µM): 1.73%
> 10000 nM | > 10000 nM | > 10000 nM | > 10000 nM | > 10000 nM | CC(C)c1c(-c2ccccc2)nc2c(C#N)c[nH]n2c1=O + Cc1ccccc1N=Nc1ccc(NC(=O)c2ccnn2C)c(C)c1 | 95.3% | 88.1% | 94.9% | 98.5% | 112% | 102% | 97.4% | 85.6% | 85.5% | 88.1% | 90.4% | 78% | 79% | 86.3% | 75.6% | viability, T/C [10]: 78.8%; viability, T/C [11]: 95.9%; viability, T/C [12]: 92.1%; viability, T/C [15]: 94.7%; viability, T/C [16]: 89.5%; viability, T/C [17]: 87.6%; viability, T/C [18]: 84.1%; viability, T/C [21]: 84.5%; viability, T/C [22]: 77.6%; viability, T/C [23]: 81.5%; viability, T/C [24]: 86.8%; viability, T/C [27]: 67.9%; viability, T/C [28]: 82.8%; viability, T/C [29]: 81.7%; viability, T/C [30]: 79.3%
< 31.6 nM | < 31.6 nM | < 31.6 nM | < 31.6 nM | < 31.6 nM | Nc1ccn(C2OC(CO)C(O)C2(F)F)c(=O)n1 (stereo not given) + CC(CO)NC(=O)c1cc(-c2ccc(Cl)cc2)nn(-c2cnn(C)c2)c1=O | 43.6% | 43.4% | 39.1% | 38.8% | 35.7% | 26.6% | 43.3% | 41.7% | 41.1% | 46.7% | 47.5% | 42.8% | 41.9% | 40% | 40.5% | viability, T/C [10]: 38.3%; viability, T/C [11]: 28.4%; viability, T/C [12]: 27.3%; viability, T/C [15]: 39.9%; viability, T/C [16]: 37.9%; viability, T/C [17]: 31%; viability, T/C [18]: 27.1%; viability, T/C [21]: 41.9%; viability, T/C [22]: 39.2%; viability, T/C [23]: 29.2%; viability, T/C [24]: 23.9%; viability, T/C [27]: 45%; viability, T/C [28]: 34.5%; viability, T/C [29]: 27.2%; viability, T/C [30]: 23.7%
